Data taken from US20070128217A1 (priority 2003, published 2007).

Assays:
[1] = test system: antibodies in sera from SARS patients (sera 1a, 1b, 2, 6, 37, 62, London, SARS-yellow, SARS-green); format: binding, human; design: Binding of serum 6 to linear peptides of protein X1 of SARS-CoV Urbani / Binding of serum 37 to linear peptides of protein X1 of SARS-CoV Urbani / Binding of serum 6 to looped/cyclic peptide (PEPSCAN-ELISA) / Binding of serum 37 to looped/cyclic peptide (PEPSCAN-ELISA) / Binding of serum 37 to looped/cyclic peptides of protein X1 of SARS-CoV Urbani / Binding of serum 6 to linear peptides of protein X2 / Binding of serum 37 to linear peptides of protein X2 / Binding of serum 37 to looped/cyclic peptides of protein X2 of SARS-CoV Urbani / Binding of serum 6 to linear peptides of protein M of SARS-CoV Urbani / Binding of serum 37 to linear peptides of protein M of SARS-CoV Urbani / Binding of serum 6 to looped/cyclic peptides of protein M of SARS-CoV Urbani / Binding of serum 37 to looped/cyclic peptides of protein M of SARS-CoV Urbani / Binding of serum 6 to linear peptides of protein X3 of SARS-CoV Urbani / Binding of serum 37 to linear peptides of protein X3 of SARS-CoV Urbani / Binding of serum 37 to looped/cyclic peptides of protein X3 of SARS-CoV Urbani / Binding of serum 6 to linear peptides of protein X4 of SARS-CoV Urbani / Binding of serum 37 to linear peptides of protein X4 of SARS-CoV Urbani / Binding of serum 37 to looped/cyclic peptides of protein X4 of SARS-CoV Urbani / Binding of serum 6 to linear peptides of protein X5 of SARS-CoV Urbani / Binding of serum 37 to linear peptides of protein X5 of SARS-CoV Urbani / Binding of serum 37 to looped/cyclic peptides of protein X5 of SARS-CoV Urbani / Binding of serum 6 to linear peptides of protein N of SARS-CoV Urbani / Binding of serum 37 to linear peptides of protein N of SARS-CoV Urbani / Binding of serum 6 to linear peptide (PEPSCAN-ELISA) / Binding of serum 1a to looped/cyclic peptides of protein N of SARS-CoV Urbani / Binding of serum 1b to looped/cyclic peptides of protein N of SARS-CoV Urbani / Binding of serum 2 to looped/cyclic peptides of protein N of SARS-CoV Urbani / Binding of serum 6 to looped/cyclic peptides of protein N of SARS-CoV Urbani / Binding of serum 37 to looped/cyclic peptides of protein N of SARS-CoV Urbani / Binding of serum 62 to looped/cyclic peptides of protein N of SARS-CoV Urbani / Binding of serum London to looped/cyclic peptides of protein N of SARS-CoV Urbani / Binding of serum SARS-green to looped/cyclic peptides of protein N of SARS-CoV Urbani: unit not given here
[2] = test system: control sera (pooled serum of ten healthy LUMC hospital workers; commercial negative donor pooled serum from the Dutch bloodbank); format: binding, human; design: Binding of Control serum LUMC to linear peptides / Binding of Control serum Blood-bank to linear peptides / Binding of Control serum LUMC to looped peptides / Binding of Control Serum Blood-Bank to Looped peptides / Binding of Control serum LUMC to linear peptides of the protein M of SARS-CoV Urbani / Binding of Control serum Blood-bank to linear peptides of the protein M of SARS-CoV Urbani / Binding of Control serum LUMC to looped peptides of the protein M of SARS-CoV Urbani / Binding of Control Serum Blood-Bank to Looped peptides of the protein M of SARS-CoV Urbani: unit not given here
[3] = test system: rabbit serum obtained by immunizing a rabbit with the SARS-CoV strain Frankfurt 1; format: binding; design: Binding of a rabbit serum to linear peptides / Binding of a rabbit serum to looped peptides / Rabbit serum linear peptides / Rabbit serum looped peptides / Binding of a rabbit serum to linear peptides of protein N of SARS-CoV Urbani (Rabbit serum linear peptides) / Binding of a rabbit serum to looped/cyclic peptides of protein N of SARS-CoV Urbani (Rabbit serum looped peptides): unit not given here

Sequence | Binding of Control Serum Blood-Bank to Looped peptides [2] | Binding of Control serum Blood-bank to linear peptides [2] | Binding of Control serum LUMC to linear peptides [2] | Binding of Control serum LUMC to looped peptides [2] | Binding of serum 1a to linear peptides of protein X1 of SARS-CoV Urbani [1] | Binding of serum 1a to looped/cyclic peptide (PEPSCAN-ELISA) [1] | Binding of serum 1b to linear peptides of protein X1 of SARS-CoV Urbani [1] | Binding of serum 1b to looped/cyclic peptide (PEPSCAN-ELISA) [1] | Binding of serum 2 to linear peptides of protein X1 of SARS-CoV Urbani [1] | Binding of serum 2 to looped/cyclic peptide (PEPSCAN-ELISA) [1] | Binding of serum 6 to linear peptides of protein X1 of SARS-CoV Urbani [1] | Binding of serum 6 to looped/cyclic peptide (PEPSCAN-ELISA) [1] | Binding of serum 37 to linear peptides of protein X1 of SARS-CoV Urbani [1] | Binding of serum 37 to looped/cyclic peptide (PEPSCAN-ELISA) [1] | Binding of serum 62 to linear peptides of protein X1 of SARS-CoV Urbani [1] | Binding of serum 62 to looped/cyclic peptide (PEPSCAN-ELISA) [1] | Binding of serum London to linear peptides of protein X1 of SARS-CoV Urbani [1] | Binding of serum London to looped/cyclic peptide (PEPSCAN-ELISA) [1] | Binding of serum SARS-green to linear peptides of protein X1 of SARS-CoV Urbani [1] | Binding of serum SARS-green to looped/cyclic peptide (PEPSCAN-ELISA) [1] | other results
ALIARCWYLHEGHQT | 0.4 | 0.6 | 0.4 | 0.1 |  |  |  |  |  |  |  |  |  |  |  |  |  |  |  |  | Binding of serum 1a to linear peptides of protein X5 of SARS-CoV Urbani [1]: 0.6; Binding of serum 1a to looped/cyclic peptides of protein X5 of SARS-CoV Urbani [1]: 0.6; Binding of serum 1b to linear peptides of protein X5 of SARS-CoV Urbani [1]: 0.5; Binding of serum 1b to looped/cyclic peptides of protein X5 of SARS-CoV Urbani [1]: 0.1; Binding of serum 2 to linear peptides of protein X5 of SARS-CoV Urbani [1]: 0.6; Binding of serum 2 to looped/cyclic peptides of protein X5 of SARS-CoV Urbani [1]: 0.5; Binding of serum 6 to linear peptides of protein X5 of SARS-CoV Urbani [1]: 0.5; Binding of serum 6 to looped/cyclic peptides of protein X5 of SARS-CoV Urbani [1]: 0.3; Binding of serum 37 to linear peptides of protein X5 of SARS-CoV Urbani [1]: 0.7; Binding of serum 37 to looped/cyclic peptides of protein X5 of SARS-CoV Urbani [1]: 0.4; Binding of serum 62 to linear peptides of protein X5 of SARS-CoV Urbani [1]: 0.7; Binding of serum 62 to looped/cyclic peptides of protein X5 of SARS-CoV Urbani [1]: 0.4; Binding of serum London to linear peptides of protein X5 of SARS-CoV Urbani [1]: 0.6; Binding of serum London to looped/cyclic peptides of protein X5 of SARS-CoV Urbani [1]: 0.1; Binding of serum SARS-green to linear peptides of protein X5 of SARS-CoV Urbani [1]: 0.7; Binding of serum SARS-green to looped/cyclic peptides of protein X5 of SARS-CoV Urbani [1]: 0.0; Binding of serum SARS-yellow to linear peptides of protein X5 of SARS-CoV Urbani [1]: 0.2; Binding of serum SARS-yellow to looped/cyclic peptides of protein X5 of SARS-CoV Urbani [1]: 0.0; Rabbit serum linear peptides [3]: 0.6; Rabbit serum looped peptides [3]: 0.0
ALIYFLQCINACRII | 0.5 | 0.5 | 0.5 | 0.3 | 0.6 | 0.3 | 0.6 | 0.2 | 0.5 | 0.4 | 0.4 | 0.9 | 0.7 | 0.3 | 0.6 | 0.3 | 0.3 | 1.3 | 0.1 | 0.3 | Binding of serum SARS-yellow to linear peptides of protein X1 of SARS-CoV Urbani [1]: 0.4; Binding of serum SARS-yellow to looped/cyclic peptide (PEPSCAN-ELISA) [1]: 0.1; Binding of a rabbit serum to linear peptides [3]: 0.7; Binding of a rabbit serum to looped peptides [3]: 0.6
ALNKRWQLALYKGFQ | 0.9 | 0.6 | 0.6 | 0.8 | 0.7 | 0.8 | 0.6 | 0.6 | 0.5 | 0.7 | 0.5 | 0.6 | 0.6 | 0.6 | 0.5 | 0.7 | 0.2 | 0.3 | 0.2 | 0.4 | Binding of serum SARS-yellow to linear peptides of protein X1 of SARS-CoV Urbani [1]: 0.4; Binding of serum SARS-yellow to looped/cyclic peptide (PEPSCAN-ELISA) [1]: 0.6; Recognition of the peptide by the rabbit serum [3]: recognized
ALTCTSTHFAFACAD | 0.9 | 0.7 | 0.8 | 0.8 |  |  |  |  |  |  |  |  |  |  |  |  |  |  |  |  | Binding of serum 1a to linear peptides of protein X4 of SARS-CoV Urbani [1]: 0.8; Binding of serum 1a to looped/cyclic peptides of protein X4 of SARS-CoV Urbani [1]: 0.8; Binding of serum 1b to linear peptides of protein X4 of SARS-CoV Urbani [1]: 0.8; Binding of serum 1b to looped/cyclic peptides of protein X4 of SARS-CoV Urbani [1]: 0.7; Binding of serum 2 to linear peptides of protein X4 of SARS-CoV Urbani [1]: 0.5; Binding of serum 2 to looped/cyclic peptides of protein X4 of SARS-CoV Urbani [1]: 0.7; Binding of serum 6 to linear peptides of protein X4 of SARS-CoV Urbani [1]: 0.6; Binding of serum 6 to looped/cyclic peptides of protein X4 of SARS-CoV Urbani [1]: 0.7; Binding of serum 37 to linear peptides of protein X4 of SARS-CoV Urbani [1]: 0.9; Binding of serum 37 to looped/cyclic peptides of protein X4 of SARS-CoV Urbani [1]: 0.9; Binding of serum 62 to linear peptides of protein X4 of SARS-CoV Urbani [1]: 0.9; Binding of serum 62 to looped/cyclic peptides of protein X4 of SARS-CoV Urbani [1]: 0.9; Binding of serum London to linear peptides of protein X4 of SARS-CoV Urbani [1]: 0.8; Binding of serum London to looped/cyclic peptides of protein X4 of SARS-CoV Urbani [1]: 0.3; Binding of serum SARS-green to linear peptides of protein X4 of SARS-CoV Urbani [1]: 0.8; Binding of serum SARS-green to looped/cyclic peptides of protein X4 of SARS-CoV Urbani [1]: 0.8; Binding of serum SARS-yellow to linear peptides of protein X4 of SARS-CoV Urbani [1]: 0.7; Binding of serum SARS-yellow to looped/cyclic peptides of protein X4 of SARS-CoV Urbani [1]: 0.8; Rabbit serum linear peptides [3]: 0.6; Rabbit serum looped peptides [3]: 0.6
ALYKGFQFICNLLLL | 0.5 | 0.6 | 0.5 | 0.5 | 0.6 | 0.4 | 0.5 | 0.3 | 0.4 | 0.3 | 0.4 | 1.3 | 0.5 | 0.4 | 0.5 | 0.4 | 0.2 | 1.4 | 0.2 | 0.2 | Binding of serum SARS-yellow to linear peptides of protein X1 of SARS-CoV Urbani [1]: 0.5; Binding of serum SARS-yellow to looped/cyclic peptide (PEPSCAN-ELISA) [1]: 0.4; Binding of a rabbit serum to linear peptides [3]: 0.6; Binding of a rabbit serum to looped peptides [3]: 0.4
